tested on: Influenza type B (cell culture adapted strain B/Lee/40, ATCC VR-1535); assay: Influenza antiviral assay: inhibition of virus-induced cytopathic effects (CPE) in MDCK cells, XTT dye reduction; type: cell-based; settings: Influenza B virus, MDCK, 96 h, strain B/Lee/40, MDCK cells, CPE inhibition at 4 days

Compound | EC50 [nM]
CN1CN(C23c4ccccc4CC2Cc2ccccc23)n2ccc(=O)c(O)c2C1=O (stereo not drawn) [Compound A1, 1-(9a, 10-dihydroindeno[1,2-a]inden-4b(9H)-yl)-5-hydroxy-3-methyl-2,3-dihydro-1H-pyrido[2,1-f][1,2,4]triazine-4,6-dione] | 250 to 375
O=C1c2c(O)c(=O)ccn2N(C23c4ccccc4CC2Cc2ccccc23)CN1CC1CC1 (stereo not drawn) [Compound A2, 3-Cyclopropylmethyl-1-(9a,10-dihydro-9H-indeno[1,2-a]inden-4b-yl)-5-hydroxy-2,3-dihydro-1H-pyrido[2,1-f][1,2,4]triazine-4,6-dione] | > 500
CN1CN(C23c4ccc(F)cc4CC2Cc2cc(F)ccc23)n2ccc(=O)c(O)c2C1=O (stereo not drawn) [Compound A3, 1-(2,7-Difluoro-9a,10-dihydro-9H-indeno[1,2-a]inden-4b-yl)-5-hydroxy-3-methyl-2,3-dihydro-1H-pyrido[2,1-f][1,2,4]triazine-4,6-dione] | > 500
O=C1c2c(O)c(=O)ccn2N(C23c4ccccc4CC2Cc2ccccc23)CN1Cc1ccccc1 (stereo not drawn) [Compound A4, 3-Benzyl-1-(9a,10-dihydro-9H-indeno[1,2-a]inden-4b-yl)-5-hydroxy-2,3-dihydro-1H-pyrido[2,1-f][1,2,4]triazine-4,6-dione] | > 500
O=C1c2c(O)c(=O)ccn2N(C23c4ccccc4CC2Cc2ccccc23)CN1CCOc1ccccc1 (stereo not drawn) [Compound A7, 1-(9a,10-Dihydro-9H-indeno[1,2-a]inden-4b-yl)-5-hydroxy-3-(2-phenoxy-ethyl)-2,3-dihydro-1H-pyrido[2,1-t][1,2,4]triazine-4,6-dione] | < 125
CN1CN(C23c4cc(F)c(F)cc4CC2Cc2cc(F)c(F)cc23)n2ccc(=O)c(O)c2C1=O (stereo not drawn) [Compound A8, 5-Hydroxy-3-methyl-1-(2,3,6,7-tetrafluoro-9a,10-dihydro-9H-indeno[1,2-a]inden-4b-yl)-2,3-dihydro-1H-pyrido[2,1-f][1,2,4]triazine-4,6-dione] | > 500
O=C1c2c(O)c(=O)ccn2N(C23c4ccccc4CC2Cc2c3ccc(F)c2F)CN1CC1CC1 (stereo not drawn) [Compound A9, 3-Cyclopropylmethyl-1-(1,2-difluoro-9a,10-dihydro-9H-indeno[1,2-a]inden-4b-yl)-5-hydroxy-2,3-dihydro-1H-pyrido[2,1-f][1,2,4]triazine-4,6-dione] | 125 to 250
CCN1CN(C23c4ccccc4CC2Cc2cc(F)c(F)cc23)n2ccc(=O)c(O)c2C1=O (stereo not drawn) [Compound A10, 1-(2,3-Difluoro-9a,10-dihydro-9H-indeno[1,2-a]inden-4b-yl)-3-ethyl-5-hydroxy-2,3-dihydro-1H-pyrido[2,1-f][1,2,4]triazine-4,6-dione] | > 500
O=C1c2c(O)c(=O)ccn2N(C23c4ccccc4CC2Cc2c3ccc(F)c2F)CN1Cc1ccccc1 (stereo not drawn) [Compound A11, 3-Benzyl-1-(1,2-difluoro-9a,10-dihydro-9H-indeno[1,2-a]inden-4b-yl)-5-hydroxy-2,3-dihydro-1H-pyrido[2,1-t][1,2,4]triazine-4,6-dione] | 375 to 500
CN1CN(C23c4cccc(F)c4CC2Cc2c(F)cccc23)n2ccc(=O)c(O)c2C1=O (stereo not drawn) [Compound A12, 1-(1,8-Difluoro-9a,10-dihydro-9H-indeno[1,2-a]inden-4b-yl)-5-hydroxy-3-methyl-2,3-dihydro-1H-pyrido[2,1-f][1,2,4]triazine-4,6-dione] | > 500
O=C1c2c(O)c(=O)ccn2N(C23c4ccccc4CC2Cc2cc(F)c(F)cc23)CN1CC1CC1 (stereo not drawn) [Compound A13, 3-Cyclopropylmethyl-1-(2,3-difluoro-9a,10-dihydro-9H-indeno[1,2-a]inden-4b-yl)-5-hydroxy-2,3-dihydro-1H-pyrido[2,1-f][1,2,4]triazine-4,6-dione] | < 125
CCN1CN(C23c4ccccc4CC2Cc2c3ccc(F)c2F)n2ccc(=O)c(O)c2C1=O (stereo not drawn) [Compound A14, 1-(1,2-Difluoro-9a,10-dihydro-9H-indeno[1,2-a]inden-4b-yl)-3-ethyl-5-hydroxy-2,3-dihydro-1H-pyrido[2,1-f][1,2,4]triazine-4,6-dione] | 125 to 250

Reference: patent US12037333B2, “Pyridopyrazine and pyridotriazine inhibitors of influenza virus replication” (priority 2018, dated 2024)
